Reference: patent US20260345603A1, “PRMT5 INHIBITORS” (Beijing Earthwise Technology Co., Ltd., priority 2022, published 2026)
Where two headings read alike, the source gives them in different places.

Tests used:
Assay type in all cases: cell-based
[1] = system: HCT116^MTAP Deletion cells; experiment: Anti-proliferation assay on cells (CTG, 10 days), HCT116 MTAP Deletion
Protocol: (§1) HCT116^MTAD Deletion cells were from Pharmaron (China); HCT116 cells were from ATCC; McCoy's 5A medium was purchased from Invitrogen (USA); penicillin-streptomycin and fetal bovine serum were purchased from Gibco (USA); a 384-well plate was purchased from PerkinElmer (USA); and Cell-Titer Glo reagent was purchased from Promega (USA).
(§2) Compound dissolution: All the compounds were dissolved in dimethyl sulfoxide (DMSO) and then stored. The compounds were stored at room temperature in a dry condition for 3 months for short term storage or at −20 °C for long term storage.
(§3) The cells were cultured strictly in accordance with ATCC requirements. The cell culture medium (McCoy's 5A medium+10% fetal bovine serum+1% penicillin+streptomycin) was transferred to a 15 mL centrifuge tube and centrifuged at 1000 rpm for 5 min. The supernatant was removed. The cells were resuspended with complete culture medium, inoculated into a culture dish at the required density, and cultured in an incubator at 37 °C, 95% humid air, and 5% carbon dioxide. The culture medium was replenished or the cells were passaged every 2-3 days depending on the cell growth condition.
(§4) When the confluency of cells in the culture dish reached about 90%, the cells were washed twice with PBS, and then treated with trypsin to become single cells. The cells were counted, and 40 μl of the cells was inoculated into each well of a 384-well plate (50 cells/well). The plate was equilibrated at 37 °C and 5% carbon dioxide for 10 to 15 minutes. The compounds were injected into the 384-well plate using Echo550, and positive control and negative control (0.1% DMSO) were set up. Each compound was subjected to a 3-fold dilution, resulting in 10 concentration gradients, in duplicate, and the content of DMSO was 0.1%. The 384-well plate was incubated in a cell culture incubator for 10 days.
(§5) Then, 40 μl of cell proliferation assay reagent (CTG) was added to the 384-well plate, and the plate was shaken to mix well. Then, the 384-well plate was incubated at 37 °C and 5% carbon dioxide in the dark for 30 minutes. The data were read using the Envision multifunctional microplate reader. […] According to the different drug concentrations and their corresponding inhibition rates, the GI50 curve was drawn using GraphPad 8.0 software. The data were analyzed, and the final GI50 value was obtained.

[2] = target: T1, cellular SDMA in HCT116^MTAP Deletion cells (Homo sapiens, UniProt O14744); experiment: In-Cell Western Assay of cellular SDMA, HCT116 MTAP Deletion; conditions: 96 hours, read-out: SDMA inhibition IC50 in HCT116^MTAP Deletion
T1 construct: in-cell Western of symmetric dimethylarginine
T1 sequence (O14744 whole entry, stated change not applied): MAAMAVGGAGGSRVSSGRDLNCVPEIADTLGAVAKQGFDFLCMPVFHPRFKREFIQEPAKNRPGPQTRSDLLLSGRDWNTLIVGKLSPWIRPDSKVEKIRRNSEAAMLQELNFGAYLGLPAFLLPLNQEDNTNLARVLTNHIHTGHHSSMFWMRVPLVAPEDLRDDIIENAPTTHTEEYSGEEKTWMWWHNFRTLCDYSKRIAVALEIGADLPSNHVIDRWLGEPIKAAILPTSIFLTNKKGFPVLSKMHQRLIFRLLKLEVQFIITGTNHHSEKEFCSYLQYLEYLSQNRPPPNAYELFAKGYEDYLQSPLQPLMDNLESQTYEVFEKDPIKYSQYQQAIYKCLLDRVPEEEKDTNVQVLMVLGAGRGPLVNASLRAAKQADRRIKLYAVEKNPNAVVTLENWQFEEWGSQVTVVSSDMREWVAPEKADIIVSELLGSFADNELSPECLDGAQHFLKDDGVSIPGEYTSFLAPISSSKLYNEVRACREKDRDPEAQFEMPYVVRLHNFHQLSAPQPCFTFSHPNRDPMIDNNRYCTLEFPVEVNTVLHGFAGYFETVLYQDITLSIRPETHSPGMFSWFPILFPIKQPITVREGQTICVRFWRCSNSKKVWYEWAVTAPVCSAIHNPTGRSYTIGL
T1 sequence (Q9BQA1 whole entry partner): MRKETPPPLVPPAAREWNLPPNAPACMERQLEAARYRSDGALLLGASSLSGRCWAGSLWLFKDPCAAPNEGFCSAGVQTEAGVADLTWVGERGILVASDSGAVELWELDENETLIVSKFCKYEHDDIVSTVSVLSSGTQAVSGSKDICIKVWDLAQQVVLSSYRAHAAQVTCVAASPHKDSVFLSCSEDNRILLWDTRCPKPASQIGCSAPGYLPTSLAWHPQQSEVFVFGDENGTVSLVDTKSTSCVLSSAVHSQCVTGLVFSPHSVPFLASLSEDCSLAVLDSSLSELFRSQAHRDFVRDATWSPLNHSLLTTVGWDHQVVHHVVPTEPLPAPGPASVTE
Excerpt: (§6) HCT116^MTAPD Deletion cells were from Horizon; HCT116 cells were from ATCC; RPMI-1640 medium was purchased from ATCC (USA); penicillin-streptomycin was purchased from Gibco (USA); fetal bovine serum was purchased from ExCell; 96-well plate was purchased from Corning (USA); Symmetric Di-Methyl Arginine Motif [sdme-RG]antibody was purchased from CST (USA); IRDye 800CW Goat anti-Rabbit IgG secondary antibody was purchased from LI-COR (USA), and CellTag 700 stain was purchased from LI-COR (USA).
(§7) Compound dissolution: All the compounds were dissolved in dimethyl sulfoxide (DMSO) and then stored. The compounds were stored at −20 °C for long term storage.
The cells were cultured strictly in accordance with ATCC requirements. The cell culture medium (RPMI-1640 medium+10% serum+1% penicillin+streptomycin) was transferred to a 15 mL centrifuge tube and centrifuged at 1000 rpm for 5 min. The supernatant was removed. The cells were resuspended with complete culture medium, inoculated into a culture dish at the required density, and cultured in an incubator at 37 °C, 95% humid air, and 5% carbon dioxide. The culture medium was replenished or the cells were passaged every 2-3 days depending on the cell growth condition.
When the confluency of cells in the culture dish reached about 90%, the cells were washed twice with PBS, and then digested with trypsin. 100 μl of the cells was inoculated into each well of a 96-well plate (800 cells/well). The plate was incubated overnight in a 37 °C and 5% CO2 incubator. 50 μL of 3× final concentration of a compound was added to the cell culture plate. Each compound was subjected to a 3-fold dilution, resulting in 10 concentration gradients, in duplicate, and the final concentration of DMSO was 0.5%. The plate was incubated in a 37 °C and 5% CO2 incubator for 96 hours.
150 μL of 8% paraformaldehyde was added to each well, and the plate was incubated at room temperature for 15 minutes. The supernatant was discarded. The plate was washed with PBS, and 200 μL of freshly prepared 1× Permeabilization buffer was added to each well. The plate was incubated at room temperature for 30 minutes. The supernatant was discarded. 200 μL of 1× Blocking buffer was added to each well, and the plate was incubated at room temperature for 2 hours. The supernatant was discarded. 50 μL of primary antibody (CST, 1× Incubation buffer 1:500 dilution) was added to each well, and the plate was incubated at 4 °C overnight. The supernatant was discarded. 250 μL of 1× Washing buffer was added to each well, and the plate was washed three times. 50 μL of secondary antibody (IRDye 800CW Goat anti-Rabbit IgG and CellTag 700 dye, 1:800 and 1:500 diluted in Incubation buffer) was added to each well, and the plate was incubated at room temperature for 1 hour. The supernatant was discarded. The plate was washed with 1× Washing buffer. Signals were detected using Licor Odyssey CLX. […] According to the different drug concentrations and their corresponding inhibition rates, the IC50 curve was drawn using GraphPad 8.0 software. The data were analyzed, and the final IC50 value was obtained.

[3] = system: cellular SDMA in HCT116 cells; experiment: In-Cell Western Assay of cellular SDMA, HCT116; conditions: Homo sapiens, HCT-116, 96 hours, read-out: SDMA inhibition IC50 in HCT116
Excerpt: as §6, §7
The cells were cultured strictly in accordance with ATCC requirements. The cell culture medium (RPMI-1640 medium+10% serum+1% penicillin+streptomycin) was transferred to a 15 mL centrifuge tube and centrifuged at 1000 rpm for 5 min. The supernatant was removed. The cells were resuspended with complete culture medium, inoculated into a culture dish at the required density, and cultured in an incubator at 37 °C, 95% humid air, and 5% carbon dioxide. […]
150 μL of 8% paraformaldehyde was added to each well, and the plate was incubated at room temperature for 15 minutes. […] Signals were detected using Licor Odyssey CLX. […] The data were analyzed, and the final IC50 value was obtained.

[4] = system: HCT116 cells (HCT116^MTAP WT); experiment: Anti-proliferation assay on cells (CTG, 10 days), HCT116 (MTAP WT); conditions: for Selectivity multiple of HCT116^MTAP WT GI50/HCT116^MTAP Deletion GI50: ratio HCT116 MTAP WT GI50 / HCT116 MTAP Deletion GI50; for selectivity (HCT116 vs HCT116^MTAP Deletion GI50): 14400 min; for GI50: Homo sapiens, HCT-116, HCT116 (MTAP WT)
Protocol: as §1, §2, §3, §4, §5

[5] = anti-proliferative activity, HCT116 MTAP Deletion, 10 days, class symbols, read-out: HCT116^MTAP Deletion GI50
[6] = Homo sapiens, HCT-116, 240 h, anti-proliferative activity, HCT116 MTAP Deletion, 10 days, class symbols, read-out: HCT116^MTAP Deletion GI50
[7] = Homo sapiens, HCT-116, HCT116 MTAP Deletion, read-out: GI50 for HCT116^MTAP Deletion

Compound	GI50 [1, 6] [nM]	other results
CN(C(=O)C(=O)Nc1cnc(N)c2c1cnn2C)C1COc2cc(C(F)(F)F)ccc21 (single isomer, unassigned) [Example 112-P1]	–	GI50 [1, 5]: ≤ 10 nM; IC50 [2]: ≤ 10 nM; IC50 [3]: 100 to 1000 nM
CN(C(=O)C(=O)Nc1cnc(N)c2c1cnn2C)C1COCc2cc(Cl)c(Cl)cc21 (single isomer, unassigned) [Example 163-P1]	–	Selectivity multiple of HCT116^MTAP WT GI50/HCT116^MTAP Deletion GI50 [4]: 94
Cc1cc(NC(=O)C(=O)N(Cc2ccc(C(F)(F)F)cn2)C(C)(C)C)cnc1N [Example 33]	1000 to 10000	GI50 [1, 7]: ≤ 100 nM; selectivity (HCT116 vs HCT116^MTAP Deletion GI50) [4]: more than 300 times; GI50 [4]: 1000 to 10000 nM
C[C@H](c1ncccn1)N(Cc1ccc(C(F)(F)F)cn1)C(=O)C(=O)Nc1cnc(N)c2cnn(C)c12 [Example 34]	100 to 1000	GI50 [1, 7]: ≤ 100 nM; selectivity (HCT116 vs HCT116^MTAP Deletion GI50) [4]: more than 300 times; GI50 [4]: 1000 to 10000 nM
Cn1ncc2c(NC(=O)C(=O)N(Cc3ccc(C(F)(F)F)cn3)CC3CC3)cnc(N)c21 [Example 43]	≤ 10	–
CC(c1cscn1)N(Cc1ccc(C(F)(F)F)cn1)C(=O)C(=O)Nc1cnc(N)c2c1cnn2C (stereo not shown) [Example 44]	10 to 100	–
CCC(C)N(Cc1ccc(C(F)(F)F)cn1)C(=O)C(=O)Nc1cnc(N)c2c1cnn2C (stereo not shown) [Example 46-P2]	10 to 100	–
CCC(C)N(Cc1ccc(C(F)(F)F)cn1)C(=O)C(=O)Nc1cnc(N)c2c1cnn2C (stereo not shown) [Example 52]	–	GI50 [1, 5]: ≤ 10 nM
CCC(C)N(Cc1ccc(OCC(F)(F)F)nn1)C(=O)C(=O)Nc1cnc(N)c(C)c1 (stereo not shown) [Example 63]	100 to 1000	–
CCC(C)N(Cc1cnn(C)c1)C(=O)C(=O)Nc1cnc(N)c(C)c1 (stereo not shown) [Example 73]	> 10000	–
CN(C(=O)C(=O)Nc1cnc(N)c2c1cnn2C)C1COCc2cc(-c3cnn(C)c3)ccc21 (stereo not shown) [Example 99]	≤ 10	–
CN(C(=O)C(=O)Nc1cnc(N)c2c1cnn2C)C1COCc2cc(C3=CCOCC3)ccc21 (stereo not shown) [Example 100]	≤ 10	–
CN(C(=O)C(=O)Nc1cnc(N)c2c1cnn2C)C1COCc2cc(C(F)(F)F)ccc21 (stereo not shown) [Example 106-P2]	–	GI50 [1, 5]: ≤ 10 nM; IC50 [2]: ≤ 10 nM; Selectivity multiple of HCT116^MTAP WT GI50/HCT116^MTAP Deletion GI50 [4]: 169; IC50 [3]: 10 to 100 nM
CN(C(=O)C(=O)Nc1cnc(N)c2c1cnn2C)C1COCc2cc(-c3cnn(C)c3)ccc21 (stereo not shown) [Example 124-P1]	–	GI50 [1, 5]: ≤ 10 nM
CN(C(=O)C(=O)Nc1cnc(N)c2c1cnn2C)C1COCc2cc(C3=CCOCC3)ccc21 (stereo not shown) [Example 132-P1]	–	GI50 [1, 5]: ≤ 10 nM; IC50 [2]: ≤ 10 nM
Cc1ncc(-c2ccc3c(c2)COCC3N(C)C(=O)C(=O)Nc2cnc(N)c3c2cnn3C)s1 (stereo not shown) [Example 135]	≤ 10	IC50 [2]: ≤ 10 nM
CN(C(=O)C(=O)Nc1cnc(N)c2c1cnn2C)C1COCc2cc(-c3ccnn3C)ccc21 (stereo not shown) [Example 137]	≤ 10	–
CN(C(=O)C(=O)Nc1cnc(N)c2c1cnn2C)C1COCc2nc(C(F)(F)F)ccc21 (stereo not shown) [Example 152-P2]	–	IC50 [2]: 10 to 100 nM
CN(C(=O)C(=O)Nc1cnc(N)c2c1cnn2C)C1COCc2cc(-c3ccnn3C)ccc21 (stereo not shown) [Example 156-P1]	–	IC50 [2]: ≤ 10 nM
CN(C(=O)C(=O)Nc1cnc(N)c2c1cnn2C)C1COCc2cc(C3=CCC(F)(F)CC3)ccc21 (stereo not shown) [Example 157]	≤ 10	–
CN1CC=C(c2ccc3c(c2)COCC3N(C)C(=O)C(=O)Nc2cnc(N)c3c2cnn3C)CC1 (stereo not shown) [Example 160]	10 to 100	–
CN(C(=O)C(=O)Nc1cnc(N)c2c1cnn2C)C1COCc2cc(Cl)c(Cl)cc21 (stereo not shown) [Example 163]	≤ 10	–
CN(C(=O)C(=O)Nc1cnc(N)c2c1cnn2C)C1COc2cc(-c3ccnn3C)ccc21 (stereo not shown) [Example 192-P1]	–	IC50 [2]: ≤ 10 nM

Now from value to compound, other results behind:

GI50 [1, 6] [nM]	Compound	other results
≤ 10	CN(C(=O)C(=O)Nc1cnc(N)c2c1cnn2C)C1COc2cc(C(F)(F)F)ccc21 (stereo not shown) [Example 89]	Selectivity multiple of HCT116^MTAP WT GI50/HCT116^MTAP Deletion GI50 [4]: 160
≤ 10	CN(C(=O)C(=O)Nc1cnc(N)c2c1cnn2C)C1COCc2cc(Br)ccc21 (stereo not shown) [Example 94]	–
10 to 100	CN(C(=O)C(=O)Nc1cnc(N)c2c1cnn2C)C1COCc2cc(C(F)(F)F)ccc21 (stereo not shown) [Example 106-P1]	–
≤ 10	[2H]C([2H])([2H])N(C(=O)C(=O)Nc1cnc(N)c2c1cnn2C)C1COCc2cc(C(F)(F)F)ccc21 (stereo not shown) [Example 109]	–
100 to 1000	CN(C(=O)C(=O)Nc1cnc(N)c2c1cnn2C)C1COc2nc(C(F)(F)F)ccc21 (stereo not shown) [Example 159]	–
≤ 10	CN(C(=O)C(=O)Nc1cnc(N)c2c1cnn2C)C1COc2cc(-c3ccnn3C)ccc21 (stereo not shown) [Example 161]	–
10 to 100	[2H]C([2H])([2H])n1ncc2c(NC(=O)C(=O)N(C)C3COc4cc(C(F)(F)F)ccc43)cnc(N)c21 (stereo not shown) [Example 173]	–
≤ 10	CN(C(=O)C(=O)Nc1cnc(N)c2c1cnn2C)C1COc2cc(-c3cnn(C4CC4)c3)ccc21 (stereo not shown) [Example 211]	–
≤ 10	CN(C(=O)C(=O)Nc1cnc(N)c2c1cnn2C)C1COc2cc(-c3ccnn3C3CC3)ccc21 (stereo not shown) [Example 212]	–
≤ 10	CN(C(=O)C(=O)Nc1cnc(N)c2c1cnn2C)C1COc2cc(-c3cnn(C(F)(F)F)c3)ccc21 (stereo not shown) [Example 213]	–
10 to 100	Cc1ccc2c(c1)OCC2N(C)C(=O)C(=O)Nc1cnc(N)c2c1cnn2C (stereo not shown) [Example 233]	–
≤ 10	CN(C(=O)C(=O)Nc1cnc(N)c2c1cnn2C)C1COc2cc(-c3cnc(C4CC4)s3)ccc21 (stereo not shown) [Example 236]	–
